Reference: publication PMC8556396, “Statin-mediated disruption of Rho GTPase prenylation and activity inhibits respiratory syncytial virus infection” (Communications Biology, 2021)
Several values for one entry are separate records, joined by “and”; a condition that tells them apart may be missing. Equal entries are not always repeated.

Legend:
RSV A2 [1] = assay: Immunofluorescence staining and microscopy of RSV F and N
Protocol: HEp-2 cells were seeded to No. 1 glass coverslips (1014355117NR1, Thermo Fisher Scientific) for high-resolution confocal microscopy, or black, flat, microclear-bottom 96-well plates (655096, Greiner Bio-One) for high-throughput quantification of RSV F and N immunofluorescence. Cells were infected with RSV A2 (MOI 0.5). At 48 h p.i., cells were fixed in 4% paraformaldehyde for 30 min and permeabilized with 0.3% Triton X-100 for 10 min at room temperature. F and N proteins were probed using mouse anti-RSV F (RSV3216) and mouse anti-RSV N (RSV3132) mAbs (Bio-Rad Antibodies) diluted 1:500 in PBS + 0.1% Tween-20 (PBST), or mouse anti-RSV F mAb Alexa Fluor 488 conjugate (Millipore Sigma, 133/1H) diluted 1:200 in PBST over a 1-h incubation at room temperature. This was followed by detection with secondary anti-mouse Fab fragments conjugated to Alexa Fluor 488 (4408) or 647 (4410) (Cell Signaling Technology) diluted 1:1000 in PBST over a 1-h incubation at room temperature. Fluorescent images were acquired using either the Cellomics ArrayScan VTI HCS Reader at ×10 magnification (for quantification) or Olympus IX81 Spinning Disk Confocal microscope at ×60 magnification with oil immersion (for high-resolution images). F and N immunofluorescence was quantified in CellProfiler and normalized to total nuclear count.

RSV-GFP [2] = assay: RSV-GFP infection of HEp-2 cells, automated imaging, dose-response; assay type: cell-based, Respiratory syncytial virus; conditions: human respiratory syncytial virus; for EC50: HEp-2, 2 h, HEp-2, RSV-GFP MOI 0.5, treated 2 h post-viral exposure; for inhibition at 0.5 µM: read-out: RSV-GFP inhibition (%), log Conc (uM) -0.30103
Protocol: HEp-2 cells were seeded to black, flat, microclear-bottom 96-well plates (655096, Greiner Bio-One) at a density of 5000 cells per well and incubated at 37 °C/5% CO2 overnight. The following morning, cells were washed twice with serum-free EMEM and treated with RSV-GFP (MOI 0.5) in a minimal volume of serum-free media for 90 min under frequent agitation. Unbound virus was then removed and replaced with fresh serum-containing EMEM. All drug additions were performed 2 h post-viral exposure, unless otherwise stated. Nuclei were stained with Hoechst 33342 (H3570, Thermo Fisher Scientific) (at a final concentration of 1 µg/mL) 48 h p.i. and imaging was performed using the Cellomics ArrayScan VTI HCS Reader at ×10 magnification (SPARC BioCentre, The Hospital for Sick Children, Toronto, ON).
Automated quantification of infection rates from fluorescent images were performed in CellProfiler (v2.2.0)[86]. Major steps in the image analysis pipeline included: (1) background subtraction and smoothing, (2) segmentation of nuclei, (3) segmentation of GFP-fluorescent area, (4) object masking, and (5) measurement of nuclear number, size, and intensity. Infection rate was quantified from the ratio of nuclei within GFP-fluorescent area to the total number of nuclei (Fig. 1b). This method of analysis accounts for in vitro syncytium formation induced by RSV, whereby a single infected cell may arise from the fusion of multiple cells. Mean nuclear fluorescent intensity and size was quantified as a measure of cell viability. […]

RSV-GFP [3] = assay: microbe, parasite or virus in culture; assay type: cell-based, Respiratory syncytial virus; conditions: human respiratory syncytial virus, HEp-2, read-out: RSV-GFP inhibition (%)
Protocol: The following morning, cells were washed twice with serum-free EMEM and treated with RSV-GFP (MOI 0.5) in a minimal volume of serum-free media for 90 min under frequent agitation. Unbound virus was then removed and replaced with fresh serum-containing EMEM. All drug additions were performed 2 h post-viral exposure, unless otherwise stated.
Automated quantification of infection rates from fluorescent images were performed in CellProfiler (v2.2.0)[86]. Major steps in the image analysis pipeline included: (1) background subtraction and smoothing, (2) segmentation of nuclei, (3) segmentation of GFP-fluorescent area, (4) object masking, and (5) measurement of nuclear number, size, and intensity. Infection rate was quantified from the ratio of nuclei within GFP-fluorescent area to the total number of nuclei (Fig. 1b). This method of analysis accounts for in vitro syncytium formation induced by RSV, whereby a single infected cell may arise from the fusion of multiple cells. Mean nuclear fluorescent intensity and size was quantified as a measure of cell viability.
The MicroSource […] Collection (Discovery Systems Inc.) consisting of 2400 compounds was screened using the previously outlined RSV-GFP infection assay protocol. Robot-assisted addition of drugs was performed within 1 h of RSV-GFP infection and infection rates were assayed 48 h p.i. Drugs were provided as 10 mM stocks in DMSO and serial diluted to a final concentration of 10 µM, resulting in a final DMSO concentration of 0.1% v/v. […] Hits were selected based on the criteria that: (a) the tested drug caused a >50% reduction in infection rate and (b) was not overtly cytotoxic (<10% change in mean nuclear intensity relative to DMSO control). Z-factors were calculated on a per-plate basis to monitor assay quality.

RSV A2 [4] = assay: Quantification of infectious virus production (plaque assay); assay type: cell-based, Respiratory syncytial virus; conditions: Fig 7A; Rhosin 50 uM, EHT 1864 20 uM, ML 141 10 uM; replicate values
Protocol: HEp-2 cells were seeded to six-well plates at a density of 1 × 10^6 cells per well and incubated overnight at 37 °C/5% CO2. The following morning, cells were infected with RSV A2 (MOI 1.0) and treated with drugs 2 h post-viral exposure. The supernatant, containing progeny virions, was collected 48 h p.i., snap frozen, and stored at −80 °C. Quantification of infectious virus particles was performed by a traditional plaque assay. HEp-2 cells were seeded to six-well plates at a density of 1.5 × 10^6 cells per well and grown to 90% confluency. Cells were incubated with serial dilutions of the collected supernatants for 90 min at 37 °C/5% CO2 under frequent agitation. The inoculant was then removed and replaced with 4 mL of 1:1 4% FBS DMEM-F12/1% agarose. Plates were incubated for 5 days at 37 °C/5% CO2. Cells were then fixed with 10% formalin for 30 min at room temperature. After fixation and removal of agarose from each well, the cells were stained with 0.05% neutral red and plaques were quantified under a dissecting microscope.

[5] = GGPP 10.0 µM in the presence of atorvastatin 3.5 µM

| SMILES | EC50 (RSV-GFP [2]) [nM] | inhibition at 0.5 µM (RSV-GFP [2]; HEp-2, 48 h, replicate values) [%] | inhibition at 10 µM (RSV-GFP [3]) [%] | other results |
| --- | --- | --- | --- | --- |
| CC(C)=CCC/C(C)=C/CC/C(C)=C/CC/C(C)=C/COP(=O)(O)OP(=O)(O)O.N.N.N [GGPP, geranylgeranyl pyrophosphate ammonium salt] | – | – | – | restoration of F protein intensity (RSV A2 [1]; [5]): 33.4 ± 3.5%; restoration of N protein intensity (RSV A2 [1]; [5]): 50.4 ± 1.6% |
| C[C@]12CC[C@@H]3c4ccc(O)cc4CC[C@H]3[C@@H]1CC[C@@H]2O [Estradiol, 17β-Estradiol] | 1620 | 7.41 | 70.7 | – |
| O=c1cc(-c2ccccc2)oc2ccc(O)cc12 [6-Hydroxyflavone] | 705 | 36.6 | 74.1 | inhibition at 0.75 µM (RSV-GFP [2]; HEp-2, 48 h, read-out: RSV-GFP inhibition (%), log Conc (uM) -0.12494, replicate values): 56.1%; inhibition at 0.05 µM (RSV-GFP [2]; HEp-2, 48 h, read-out: RSV-GFP inhibition (%), log Conc (uM) -1.30103, replicate values): 11.4% |
| C#C[C@]1(O)CC[C@H]2[C@@H]3CCC4=CC(=O)CC[C@@H]4[C@H]3CC[C@@]21C [Norethindrone, 19-Norethindrone] | 705 | 19.2 | 75.2 | inhibition at 0.8 µM (RSV-GFP [2]; HEp-2, 48 h, read-out: RSV-GFP inhibition (%), log Conc (uM) -0.09691, replicate values): 61.9%; inhibition at 0.6 µM (RSV-GFP [2]; HEp-2, 48 h, read-out: RSV-GFP inhibition (%), log Conc (uM) -0.22185, replicate values): 41.8% |
| CC1(O)CCOC(=O)C1 (racemic) [Mevalonolactone, DL-mevalonolactone] | – | – | – | effect of mevalonolactone co-treatment in statin-treated cells (RSV A2 [1]; mevalonolactone 1 mM with atorvastatin 3.5 µM or simvastatin 1.5 µM): restore viral protein intensity to DMSO (0.1% v/v) baseline |
| N[C@H](Cc1c[nH]c2ccccc12)C(=O)N/N=C/c1ccc2nccnc2c1 [Rhosin] | – | – | – | Virus titre (log10 PFU/mL) (RSV A2 [4]): 5.176 log10 PFU/mL and 5.204 log10 PFU/mL and 5.079 log10 PFU/mL and 5.322 log10 PFU/mL |
